Laboratory results taken from patent US11337975B2, “Pharmaceutical combinations comprising a histone deacetylase inhibitor and a CD38 inhibitor and methods of use thereof” (Acetylon Pharmaceuticals, Inc., priority 2016, dated 2022).

What was measured:
Assay type in all cases: cell-based
[1] = system: H929 multiple myeloma cells; assay: Anti-CD38 antibody-dependent cell-mediated cytotoxicity (Calcein-AM) in H929 cells; conditions: 0.5 μM-2 μM for 24 hours
Protocol: Multiple myeloma cells were incubated with Calcein-AM (Invitrogen, 2 μg/ml/1 million cells) for 30 min at 37° C. After washing, the cells were used for target cells. Mononuclear cells were obtained from healthy volunteer peripheral blood by Ficoll-Paque density centrifugation and used for effector cells. Both target and effector cells (E/T=15-20) were incubated for 3-4 h and culture supernatant were subjected to measurement of fluorescence using a 490 nm excitation filter and a 520 emission filter. Percent specific lysis was calculated as follows, % specific lysis=[experiment fluorescence−spontaneous fluorescence (no effector)]/[complete lysis (100% killing by detergent)−spontaneous fluorescence (no effector)]×100 Flow Cytometry-Based Ex Vivo ADCC Assay
Cells were stained with Calcein-AM and incubated with peripheral blood mononuclear cells at a ratio of 20:1 for 3 hours.

[2] = system: MM.1S multiple myeloma cells; assay: CD38 surface level by FACS, MM.1S cells; conditions: various doses, 48 hours, FACS (FIG. 1B)
[3] = system: RPMI-8226 multiple myeloma cells; assay: CD38 surface level by FACS, RPMI-8226 cells; conditions: various doses, 48 hours, FACS (FIG. 1A)
[4] = system: H929 cells; assay: Anti-CD38 ADCC in CFSE-stained H929 cells with PBMCs, flow cytometry; conditions: pomalidomide 0.1 μM, Compound B 0.25, 0.5, 1 μM, 72 h, then anti-CD38 antibody 0.5 μg/ml 3 hours (FIG. 6)
Protocol: The cells were then incubated with an anti-CD38 antibody (0.5 μg/ml) for 3 hours. Cytotoxicity was assessed by flow cytometry.

[5] = system: patient-derived multiple myeloma cells; assay: Ex vivo anti-CD38 ADCC in autologous setting, patients' bone marrow aspirates; conditions: anti-CD38 antibody 0.5 μg/ml with or without Compound B 0.5 μM, 72 hours (FIG. 3A)
Protocol: After bone marrow aspiration, fresh bone marrow mononuclear cells (MNC) were obtained by ammonium chloride based-lyses of red cells followed by washing in phosphate-buffered saline (PBS). […] The cells were incubated for 72 h at 37° C. in 5% CO2. The viability of primary MM cells in BM MNC was determined by near infrared (n-IR) viability dyes. The surviving CD138+MM cells were enumerated in the presence of Flow-Count Fluorospheres (Beckman Coulter, CA, USA), to determine absolute numbers of viable MM cells. The percentage of daratumumab-mediated ADCC was then calculated using the following formula: % lysis cells=100−[(absolute number of surviving CD138+ cells in the presence of daratumumab/absolute number of surviving CD138+ cells in the presence of control antibody)×100%]. Phenotypic analyses of MNC were performed using a single 5-color combination of monoclonal antibodies containing CD138-PE/CD38-APC/n-IR-viability (BioLegend, San Diego, Calif., USA). Plasma cells in BM MNC were identified by CD138-PE and CD38-APC staining, and expression of CD38 on plasma cells were determined (BD Biosciences, San Jose, Calif., USA). After incubation, cells were washed twice in PBS containing 2% BSA, and then resuspended in PBS for analysis on a Fortessa cytometer (Becton Dickinson, Mountain View, Calif.). […]
The average cytotoxicity (mean±SD) was calculated from 6 patients' samples (see also FIG. 3B).

O=C(CCCCCCNC(=O)c1cnc(N(c2ccccc2)c2ccccc2)nc1)NO [Compound A, 2-(diphenylamino)-N-(7-(hydroxyamino)-7-oxoheptyl)pyrimidine-5-carboxamide]
Percent specific lysis ([1]; PBMC 20:1 for 3 hours (FIG. 2A)): increased as concentration of Compound A increased | percent augmentation ([1]; PBMC 20:1 for 3 hours (FIG. 2B)): increased as concentration of Compound A increased | percentage of CD38 positive cells [2]: increased | percentage of CD38 positive cells [3]: increased

O=C(CCCCCCNC(=O)c1cnc(N(c2ccccc2)c2ccccc2Cl)nc1)NO [Compound B, 2-((2-chlorophenyl)(phenyl)amino)-N-(7-(hydroxyamino)-7-oxoheptyl)pyrimidine-5-carboxamide]
anti-CD38 antibody-induced cytotoxicity (ADCC) [4]: enhanced | anti-CD38 antibody dependent cell mediated cytotoxicity [5]: increased | percentage of CD38 positive cells [2]: increased | percentage of CD38 positive cells [3]: increased
